Read-outs that look alike come from different tables or passages of the source.
Assays:
Assay type in all cases: in vivo
[1] = system: Southern Armyworm (Spodoptera eridania); test: Southern armyworm sprayed lima bean test; details: 96 h, read-out: mortality in comparison with untreated controls
Protocol: B.10 Southern Armyworm (Spodoptera eridania)
The active compounds were formulated in cyclohexanone as a 10,000 ppm solution supplied in tubes. The tubes were inserted into an automated electrostatic sprayer equipped with an atomizing nozzle and they served as stock solutions for which lower dilutions were made in 50% acetone:50% water (v/v). A nonionic surfactant (Kinetic®) was included in the solution at a volume of 0.01% (v/v).
Lima bean plants (variety Sieva) were grown 2 plants to a pot and selected for treatment at the 1st true leaf stage. Test solutions were sprayed onto the foliage by an automated electrostatic plant sprayer equipped with an atomizing spray nozzle. The plants were dried in the sprayer fume hood and then removed from the sprayer. Each pot was placed into perforated plastic bags with a zip closure. About 10 to 11 armyworm larvae were placed into the bag and the bags zipped closed. Test plants were maintained in a growth room at about 25° C. and about 20-40% relative humidity for 4 days, avoiding direct exposure to fluorescent light (24 hour photoperiod) to prevent trapping of heat inside the bags. Mortality and reduced feeding were assessed 4 days after treatment, compared to untreated control plants.

[2] = system: Vetch Aphid (Megoura viciae); test: Vetch aphid leaf disk test; details: foliar, 120 h, read-out: mortality in comparison with untreated controls
Protocol: B.3 Vetch Aphid (Megoura viciae)
For evaluating control of vetch aphid (Megoura viciae) through contact or systemic means the test unit consisted of 24-well-microtiter plates containing broad bean leaf disks.
The compounds were formulated using a solution containing 75% v/v water and 25% v/v DMSO. Different concentrations of formulated compounds were sprayed onto the leaf disks at 2.5 μl, using a custom built micro atomizer, at two replications.
After application, the leaf disks were air-dried and 5-8 adult aphids placed on the leaf disks inside the microtiter plate wells. The aphids were then allowed to suck on the treated leaf disks and incubated at about 23±1° C. and about 50±5% relative humidity for 5 days. Aphid mortality and fecundity was then visually assessed.

[3] = system: Mediterranean Fruitfly (Ceratitis capitata); test: Mediterranean fruitfly insect diet test; details: 120 h, read-out: mortality in comparison with untreated controls
Protocol: B.6 Mediterranean Fruitfly (Ceratitis capitata)
For evaluating control of Mediterranean fruitfly (Ceratitis capitata) the test unit consisted of microtiter plates containing an insect diet and 50-80 C. capitata eggs. The compounds were formulated using a solution containing 75% v/v water and 25% v/v DMSO. Different concentrations of formulated compounds were sprayed onto the insect diet at 5 μl, using a custom built micro atomizer, at two replications.
(§1) After application, microtiter plates were incubated at about 28±1° C. and about 80±5% relative humidity for 5 days. Egg and larval mortality was then visually assessed.

[4] = system: Boll Weevil (Anthonomus grandis); test: Boll weevil insect diet test; details: 120 h, read-out: mortality in comparison with untreated controls
Protocol: B.5 Boll Weevil (Anthonomus grandis)
For evaluating control of boll weevil (Anthonomus grandis) the test unit consisted of 96-well-microtiter plates containing an insect diet and 5-10 A. grandis eggs.
The compounds were formulated using a solution containing 75% v/v water and 25% v/v DMSO. Different concentrations of formulated compounds were sprayed onto the insect diet at 5 μl, using a custom built micro atomizer, at two replications.
After application, microtiter plates were incubated at about 25±1° C. and about 75±5% relative humidity for 5 days. Egg and larval mortality was then visually assessed.

[5] = system: Diamond Back Moth (Plutella xylostella); test: Diamond back moth leaf-dip test; details: read-out: mortality in comparison with untreated controls
Protocol: B.1 Diamond Back Moth (Plutella xylostella)
The active compound was dissolved at the desired concentration in a mixture of 1:1 (vol:vol) distilled water: aceteone. Surfactant (Kinetic HV) was added at a rate of 0.01% (vol/vol).The test solution was prepared at the day of use.
Leaves of cabbage were dipped in test solution and air-dried. Treated leaves were placed in petri dishes lined with moist filter paper and inoculated with ten 3rd instar larvae. Mortality was recorded 72 hours after treatment. Feeding damages were also recorded using a scale of 0-100%.

[6] = system: Green Peach Aphid (Myzus persicae); test: Green peach aphid systemic artificial diet test; details: 72 h, read-out: mortality in comparison with untreated controls
Description: B.2 Green Peach Aphid (Myzus persicae)
For evaluating control of green peach aphid (Myzus persicae) through systemic means the test unit consisted of 96-well-microtiter plates containing liquid artificial diet under an artificial membrane.
The compounds were formulated using a solution containing 75% v/v water and 25% v/v DMSO. Different concentrations of formulated compounds were pipetted into the aphid diet, using a custom built pipetter, at two replications.
After application, 5-8 adult aphids were placed on the artificial membrane inside the microtiter plate wells. The aphids were then allowed to suck on the treated aphid diet and incubated at about 23±1° C. and about 50±5% relative humidity for 3 days. Aphid mortality and fecundity was then visually assessed.

[7] = system: Tobacco Budworm (Heliothis virescens); test: Tobacco budworm insect diet test; details: 120 h, read-out: mortality in comparison with untreated controls
Protocol: B.4 Tobacco Budworm (Heliothis virescens)
For evaluating control of tobacco budworm (Heliothis virescens) the test unit consisted of 96-well-microtiter plates containing an insect diet and 15-25 H. virescens eggs.
The compounds were formulated using a solution containing 75% v/v water and 25% v/v DMSO. Different concentrations of formulated compounds were sprayed onto the insect diet at 10 μl, using a custom built micro atomizer, at two replications.
as §1

[8] = system: Orchid Thrips (Dichromothrips corbetti); test: Orchid thrips floral-immersion test; details: 72 h, read-out: mortality in comparison with untreated controls
Protocol: B.7 Orchid Thrips (Dichromothrips corbetti)
Dichromothrips corbetti adults used for bioassay were obtained from a colony maintained continuously under laboratory conditions. For testing purposes, the test compound is diluted in a 1:1 mixture of acetone:water (vol:vol), plus Kinetic HV at a rate of 0.01% v/v.
Thrips potency of each compound was evaluated by using a floral-immersion technique. All petals of individual, intact orchid flowers were dipped into treatment solution and allowed to dry in Petri dishes. Treated petals were placed into individual re-sealable plastic along with about 20 adult thrips. All test arenas were held under continuous light and a temperature of about 28° C. for duration of the assay. After 3 days, the numbers of live thrips were counted on each petal. The percent mortality was recorded 72 hours after treatment.

[9] = system: Rice Green Leafhopper (Nephotettix virescens); test: Rice green leafhopper sprayed rice seedling test; details: 72 h, read-out: mortality in comparison with untreated controls
Protocol: B.8 Rice Green Leafhopper (Nephotettix virescens)
Rice seedlings were cleaned and washed 24 hours before spraying. The active compounds were formulated in 1:1 acetone:water (vol:vol), and 0.01% vol/vol surfactant (Kinetic HV) was added. Potted rice seedlings were sprayed with 5-6 ml test solution, air dried, covered with Mylar cages and inoculated with 10 adults. Treated rice plants were kept at about 28-29° C. and relative humidity of about 50-60%. Percent mortality was recorded after 72 hours.

[10] = system: Green Soldier Stink Bug (Nezara viridula); test: Green soldier stink bug soybean pod spray test; details: 120 h, read-out: mortality in comparison with untreated controls
Protocol: B.11 Green Soldier Stink Bug (Nezara viridula)
(§2) The active compound was dissolved at the desired concentration in a mixture of 1:1 (vol:vol) distilled water: acetone. Surfactant (Kinetic HV) was added at a rate of 0.01% (vol/vol).The test solution was prepared at the day of use.
Soybean pods were placed in glass Petri dishes lined with moist filter paper and inoculated with ten late 3rd instar N. viridula. Using a hand atomizer, approximately 2 ml solution is sprayed into each Petri dish. Assay arenas were kept at about 25° C. Percent mortality was recorded after 5 days.

[11] = system: Neotropical Brown Stink Bug (Euschistus heros); test: Neotropical brown stink bug soybean pod spray test; details: 120 h, adults on soybean pods, sprayed, after 5 days, read-out: mortality in comparison with untreated controls
Protocol: B.12 Neotropical Brown Stink Bug (Euschistus heros)
as §2
Soybean pods were placed in microwavable plastic cups and inoculated with ten adult stage E. heros. Using a hand atomizer, approximately 1 ml solution is sprayed into each cup, insects and food present. A water source was provided (cotton wick with water). Each treatment was replicated 2-fold. Assay arenas were kept at about 25° C. Percent mortality was recorded after 5 days.

[12] = system: Red Spider Mite (Tetranychus kanzawai); test: Red spider mite sprayed cowpea bean test; details: 72 h, read-out: mortality in comparison with untreated controls
Protocol: B.9 Red Spider Mite (Tetranychus kanzawai)
The active compound was dissolved at the desired concentration in a mixture of 1:1 (vol:vol) distilled water: acetone. Add surfactant (Kinetic HV) was added at a rate of 0.01% (vol/vol).The test solution was prepared at the day of use.
Potted cowpea beans of 4-5 days of age were cleaned with tap water and sprayed with 1-2 ml of the test solution using air driven hand atomizer. The treated plants were allowed to air dry and afterwards inoculated with 30 or more mites by clipping a cassava leaf section from rearing population. Treated plants were placed inside a holding room at about 25-27° C. and about 50-60% relative humidity. Percent mortality was assessed 72 hours after treatment.

[13] = 2500 ppm, egg and larval mortality on sprayed insect diet, 5 days

O=C(NCC(F)(F)F)N/N=C/c1ccc(C2=NCC(c3cc(Cl)cc(Cl)c3)(C(F)(F)F)C2)c2c1CCC2 (stereo not drawn) [Compound 3-1, 1-[(E)-[7-[3-(3,5-Dichlorophenyl)-3-(trifluoromethyl)-2,4-dihydropyrrol-5-yl]indan-4-yl]methyleneamino]-3-(2,2,2-trifluoroethyl)urea]
≥ 75%: mortality at 10 ppm ([1]; 10 ppm, larvae on sprayed lima bean plants, 4 days after treatment) | mortality at 2500 ppm ([2]; 2500 ppm, adult aphids on sprayed broad bean leaf disks, 5 days) | mortality at 2500 ppm [3, 13] | mortality at 2500 ppm [4, 13] | mortality at 300 ppm ([5]; 300 ppm, cabbage leaves dipped, 3rd instar larvae, 72 hours after treatment) | mortality at 2500 ppm ([6]; 2500 ppm, adult aphids on treated artificial diet, 3 days) | mortality at 2500 ppm [7, 13]

Fc1c(Cl)cc(C2(C(F)(F)F)CC(c3ccc(-n4cncn4)c4c3CCC4)=NO2)cc1Cl (stereo not drawn) [Compound 4-1, 5-(3,5-Dichloro-4-fluoro-phenyl)-3-[7-(1,2,4-triazol-1-yl)indan-4-yl]-5-(trifluoromethyl)-4H-isoxazole]
≥ 75%: mortality at 300 ppm ([5]; in Brassica oleracea, 72 h) | mortality at 300 ppm [8] | mortality at 300 ppm [9]

CC(=O)NCc1ccc(C2=NOC(c3cc(Cl)c(F)c(Cl)c3)(C(F)(F)F)C2)c2c1CCC2 (stereo not drawn) [Compound 1-4, N-[[7-[5-(3,5-Dichloro-4-fluoro-phenyl)-5-(trifluoromethyl)-4H-isoxazol-3-yl]indan-4-yl]methyl]acetamide]
≥ 75%: mortality at 10 ppm [1] | mortality at 2500 ppm [2] | mortality at 300 ppm [10] | mortality at 2500 ppm [3] | mortality at 2500 ppm [4] | mortality at 300 ppm ([5]; in Brassica oleracea, 72 h) | mortality at 2500 ppm [6] | mortality at 2500 ppm [7] | mortality at 100 ppm [11] | mortality at 300 ppm [8] | mortality at 300 ppm [9] | mortality at 300 ppm [12]

O=C(NCC(F)(F)F)N/N=C/c1ccc(C2=NOC(c3cc(Cl)c(F)c(Cl)c3)(C(F)(F)F)C2)c2c1CCC2 (stereo not drawn) [Compound 2-3, 1-[(E)-[7-[5-(3,5-Dichloro-4-fluoro-phenyl)-5-(trifluoromethyl)-4H-isoxazol-3-yl]indan-4-yl]methyleneamino]-3-(2,2,2-trifluoroethyl)urea]
≥ 75%: mortality at 2500 ppm [2] | mortality at 2500 ppm [3] | mortality at 2500 ppm [4] | mortality at 300 ppm ([5]; in Brassica oleracea, 72 h) | mortality at 2500 ppm [6] | mortality at 2500 ppm [7] | mortality at 300 ppm [8] | mortality at 300 ppm [12]

Source: patent publication US10085448B2, “Azoline compounds substituted by a carbocyclic condensed ring system” (BASF SE, priority 2014, dated 2018)
